Consider two compounds from patent US8143313B2, “Compositions and methods for preventing or treating an inflammatory response” (McGill University, priority 2004, dated 2012).

One series has as its system CFTE29o-. Briefly: Apoptosis, in situ end labeling of DNA strand breaks, CFTR-deficient cells. The class given is cell-based, human. As to conditions: for apoptosis by fluorescein staining: no TNF-α. The protocol:
(§1) Adherent epithelial cell lines, CFTE29o- and 9HTEo-, grown on coated coverslips for 24 hours, were treated with fenretinide at the same concentrations used to determine IL-8 release as indicated supra. After a 24-hour incubation with fenretinide, cells were stimulated with TNF-α (experimental group) or with Cisplatin at […] (as a positive control) for an additional 24 hours. Cells were fixed in 4% paraformaldehyde in PBS at pH 7.4 for one hour at room temperature. Cells were subsequently washed and permeabilized using 0.1% TRITON™ X-100 in 0.1% citrate buffer for 2 minutes on ice. After being washed, the coverslips were individually removed from 24-well plates and cells were incubated for one hour at 37° C. with terminal deoxynucleotidyl transferase (Tdt) enzyme conjugated to fluorescein (Roche Diagnostics, Indianapolis, Ind.) for visualization. A negative slide was produced by incubating a slide of both cell lines with buffer minus the Tdt enzyme. The Tdt enzyme binds to the free hydroxyl end of DNA strand breaks. Subsequently, cells were washed twice with PBS and coverslips were placed on slides in the presence of the anti-fade medium VECTASHIELD® to facilitate fluorescence preservation. Slides were individually labeled with numbers to keep the investigator blinded to the outcome until after the slides were reviewed. Four randomly selected fields were visualized at 400× (total magnification) using a fluorescence microscopy and cells that appeared brightly flourescent were counted. Pictures were taken to estimate the number of positive to negative cells per field.

A further series has as its system normal cells (9HTEo-). Briefly: IL-8 release (ELISA) by normal human tracheal epithelial cells. The format is cell-based. How it is done:
(§2) General Procedures. Normal (9HTEo-) and CFTR-deficient human tracheal epithelial cells (CFTE29o- ΔF508 CFTR) were used in the analysis disclosed herein and grown in pre-coated T-75 flasks in a medium containing 10% fetal bovine serum (FBS). Cells were re-fed every 2-3 days until they reached confluency. Adherent monolayers were released from the plastic surface after treatment with trypsin-EDTA (Sigma-Aldrich Co., St. Louis, Mo.) and split into 24-well plates for about 24 hours before receiving treatments.
(§3) Treatment with Fenretinide and TNF-α. Normal and CFTR-deficient cells were treated with fenretinide (Wang, et al. (2001) Cancer Res. 61:5102-5105; Erdreich-Epstein, et al. (2002) supra) at doses known to effectively increase cellular ceramide content in cell culture. Normal (9HTEo-; 0.4×10^6 cells/well) and CFTR-deficient human epithelial cells (CFTE29o- ΔF508 CFTR; 0.6×10^6 cells/well) were incubated for 24 hours at 37° C. in 5% CO2 with 1.25 μM, 2.5 μM or 5 μM fenretinide in Eagle's minimum essential medium (MEM) containing 10% fetal bovine serum (FBS). Subsequently, the medium was replaced with fresh MEM 2% FBS containing the same initial concentrations of fenretinide and cells were grown for an additional 24 hours to characterize the impact of fenretinide on IL-8 release in a non-inflammatory condition. To characterize the inflammatory condition, cells were treated with MEM 2% FBS containing 1.25 μM, 2.5 μM or 5 μM fenretinide and concurrently stimulated with human recombinant TNF-α (10 ng/mL) for another 24 hours. All experiments included unstimulated negative control wells.
IL-8 Release and Cell Viability Assays. Supernatants were collected from treated cells and the amount of IL-8 released into the medium was determined using an enzyme-linked immunosorbent assay (ELISA) kit (OPTEIA™ Human IL-8 Set; BD PHARMINGEN™, San Diego, Calif.). Briefly, 96-well plates were coated overnight with capture antibody, washed with PBS, 0.05% TWEEN®-20 and coated with PBS, 10% heat-inactivated FBS. […] The reaction was stopped using a 2NH2SO4 solution and the absorbance was read at 450 nm.
(In general: An ELISA detects its analyte on a solid surface through an enzyme-linked reagent.)

Another series deals with 9HTEo-. Kind of series: Apoptosis, in situ end labeling of DNA strand breaks, non-cystic fibrosis cells. The class given is cell-based, human. The following applies: for apoptosis by fluorescein staining: no TNF-α. The protocol: as §1
The subject of series [1] is CFTR-deficient human epithelial cells (CFTE29o-). Briefly: Proliferation (viable cell counts) of CFTR-deficient human epithelial cells. The format is cell-based. How it is done: CFTE29o- (0.6×10^6/well in a 24-well plate) cells were incubated with 1.25 μM, 2.5 μM or 5 μM of fenretinide for 24 hours in a MEM containing 10% FBS. Vehicle control wells contained ethanol (EtOH) at concentrations equivalent to those used with fenretinide treatments.
CFTE29o- cells were incubated with 1.25 μM, 2.5 μM or 5 μM of fenretinide for 24 hours in a MEM containing 10% FBS. After 24 hours, the medium was replaced by MEM 2% FBS containing the same concentrations of fenretinide and stimulated with TNF-α for another 24 hours. Viable cell counts were determined.
as §3
(§4) Cell viability was assessed using a 3-(4,5-dimethylthiazol-2-yl)-2,5-diphenyltetrazolium bromide (MTT) assay according to standard methods (Mosmann, T. (1983) J. Immunol. Methods. 65:55-63). […] Cells were incubated for 4 hours at 37° C., supernatant was aspirated, HCl-isopropanol solution (0.04 N HCl in isopropanol) was added, and after 5 minutes the optical densities were measured at 540 nm. […]

For series [2] the following is noted: oral, once a day, 28-day courses, cited from earlier work.
A further series relates to Pseudomonas aeruginosa. Briefly: Pulmonary infection of CFTR knockout and wild-type mice with P. aeruginosa. The class given is in vivo, mouse. From the text:
Homogenous C57BL/6 Cftr^unc knockout mice generated by insertion of a stop codon in exon 10 of Cftr gene are well-known in the art (Snouwaert, et al. (1992) Science 257:1083-8; Gosselin, et al. (1998) Am. J. Respir. Crit. Care Med. 157:1253-62). Mice used in these studies represent offsprings from B6-Cftr^unc (+/−) mice backcrossed to C57BL/6 mice for 10 to 12 generations.
Housing Conditions. B6-Cftr (−/−) and B6-Cftr (+/+) mice were housed on corn cob bedding (Anderson, Maumee, Ohio) and fed sterile PEPTAMEN® (Clintec Nutrition, Deerfield, Ill.), a low-residue liquid diet which was previously shown to prevent intestinal obstruction in Cftr^unc knockout mice (Eckman, et al. (1995) Am. J. Physiol. 269:L625-L630). A standard diet was used (Gosselin, et al. (1998) supra), wherein the caloric content of the diet was 420 KJ/100 mL and an adult mouse consumes approximately 15 mL/day. In order to maintain the sterility of the diet, it was changed daily. For one month prior to pulmonary infection with P. aeruginosa, mice were provided fenretinide (prepared in PEPTAMEN®) in the drinking water at 5 mg/kg body weight. The dose was set for each individual mouse based on its weight and adjusted every week (e.g., 147 μg/mouse/day for 30 gram mouse).
Infection of Mice. […] The number of viable P. aeruginosa entrapped in agar beads was determined by plating serial dilutions of the homogenized bead suspension on TSA plates. […]
Bronchoalveolar Lavages (BAL). […] Alveolar cells were centrifuged, resuspended in 1 mL PBS, stained with Turk's solution and counted. The proportions of macrophages, lymphocytes, and polymorphonuclear leukocytes (PMN) were calculated after counting 200 alveolar cells on cytospin preparations stained with DIFF-QUICK® (American Scientific Products, McGaw Park, Ill.).
Measurement of Bacterial Burden. […] Serial 10-fold dilutions of homogenates were plated on petri dishes containing TSA and the number of colony-forming units (CFU) per organs was counted after overnight incubation at 37° C. […]

The subject of series [3] is CFTR-deficient cells (CFTE29o-). Briefly: IL-8 release (ELISA) by CFTR-deficient human tracheal epithelial cells. The format is cell-based. How it is done: as §2, §3
IL-8 Release and Cell Viability Assays. Supernatants were collected from treated cells and the amount of IL-8 released into the medium was determined using an enzyme-linked immunosorbent assay (ELISA) kit (OPTEIA™ Human IL-8 Set; BD PHARMINGEN™, San Diego, Calif.). Briefly, 96-well plates were coated overnight with capture antibody, washed with PBS, 0.05% TWEEN®-20 and coated with PBS, 10% heat-inactivated FBS. Known concentrations of IL-8 (standard) and supernatants containing released IL-8 were added as aliquots into appropriate wells, incubated for 2 hours and subsequently decanted from the wells. Enzyme-conjugated anti-IL-8 antibody was added and incubated for 1 hour. After washing the plate, a substrate for the enzyme was added and the plate incubated for 30 minutes. The reaction was stopped using a 2NH2SO4 solution and the absorbance was read at 450 nm.

Series [4] has as its system normal human epithelial cells (9HTEo-). Briefly: Proliferation (viable cell counts) of normal human epithelial cells. The format is cell-based. As to conditions: pro-inflammatory and non-inflammatory state, in particular 2.5 μM and higher. The protocol: 9HTEo- (0.4×10^6/well in a 24-well plate) cells were incubated with 1.25 μM, 2.5 μM or 5 μM of fenretinide for 24 hours in a MEM containing 10% FBS. Vehicle control wells contained ethanol (EtOH) at concentrations equivalent to those used with fenretinide treatments.
9HTEo- cells were incubated with 1.25 μM, 2.5 μM or 5 μM of fenretinide for 24 hours in a MEM containing 10% FBS. After 24 hours, the medium was replaced by MEM 2% FBS containing the same concentrations of fenretinide and stimulated with TNF-α for another 24 hours.
Treatment with Fenretinide and TNF-α. Normal and CFTR-deficient cells were treated with fenretinide (Wang, et al. (2001) Cancer Res. 61:5102-5105; Erdreich-Epstein, et al. (2002) supra) at doses known to effectively increase cellular ceramide content in cell culture. […]
as §4

Where [5] appears, read: CFTR-deficient and wild-type mice, 5 mg/kg for one month before challenge, 3 days post-infection.

With `N.N.[Cl][Pt][Cl]` [cisplatin], in the series on CFTE29o- (CFTR-deficient epithelial cells, as opposed to non-cystic fibrosis cells), the “apoptotic effect of positive control” value was “resistant to the apoptotic effects”.
`CC1=C(/C=C/C(C)=C/C=C/C(C)=C/C(=O)Nc2ccc(O)cc2)C(C)(C)CCC1` [fenretinide, all-trans-N-(4-hydroxyphenyl)retinamide]: in the series with normal cells (9HTEo-) (9HTEo-, TNF-α 10 ng/mL, fenretinide 1.25-5 μM), the “IL-8 maximum level as % of that secreted by TNF-α-stimulated cells” value is listed as 139%. Further, the “threshold level of IL-8 enhancement” value with normal cells (9HTEo-) (9HTEo-, TNF-α-stimulated) turned out to be 2.5 µM. Further, in the series on normal cells (9HTEo-) (non-cystic fibrosis cells, no TNF-α, all treatment doses), the “enhancement in basal IL-8 release” value is “greater than 14 fold”. Further, the “apoptosis in the presence of TNF-α” value is recorded as “significant apoptosis” with 9HTEo- (TNF-α, both doses (1.25 and 2.5 μM)); “no enhancement of apoptosis” in the series on CFTE29o- (CFTR-deficient cells, TNF-α, 1.25 and 2.5 μM). The “apoptosis by fluorescein staining” value is “weaker fluorescence and an earlier stage of apoptosis” with 9HTEo- (1.25 μM); “strong fluorescence and classic apoptotic morphology” in the series with 9HTEo- (2.5 μM); “no morphology of apoptosis, weak fluorescence was observed” in the series on CFTE29o- (CFTR-deficient cells, 1.25 μM); “early stage apoptosis” in the series on CFTE29o- (CFTR-deficient cells, 2.5 μM). For the same compound, the cell numbers result is reported as “decrease in CFTR-deficient epithelial cell numbers” in series [1] (CFTR-deficient cells, non-inflammatory condition, 2.5 μM) and “did not show a decrease in cell numbers” in series [1] (cystic fibrosis cells, 1.25 μM). Also, the cell proliferation entry in series [1] (CFTR-deficient cells, pro-inflammatory and non-inflammatory state, in particular 2.5 μM and higher) was “significant decrease in cell proliferation”; in series [4] it was “significant decrease in cell proliferation”. In addition, the “subjects with side effects” value in series [2] (subjects 2-21 years with neuroblastoma) is recorded as 15 of the 45. Moreover, the “time to reversal of side effects after discontinuation of treatment” value in series [2] is reported as at most 7 days. In the series on Pseudomonas aeruginosa (setting [5]), the “bacterial burden in lungs” value is “reduced”. For the same compound, the “recruitment of inflammatory cells to the lungs” value in the series with Pseudomonas aeruginosa (setting [5]) is recorded as “decrease in the recruitment of inflammatory cells”. For the same compound, the “reduction in P. aeruginosa cell numbers as compared to controls” value in the series on Pseudomonas aeruginosa (cystic fibrosis mice pretreated with fenretinide) is given as “approximately 40%”. Also, in series [3] (CFTE29o-, TNF-α 10 ng/mL, fenretinide 1.25-5 μM, greatest reduction), the “IL-8 level as % of the TNF-α-stimulated value, dose-dependent reduction” value is 70%. The “threshold level for significance of IL-8 reduction” value in series [3] (CFTE29o-, TNF-α-stimulated) turned out to be 2.5 µM. The activity at 1.25 µM in series [3] (Homo sapiens, Epithelial cell, CFTE29o-, TNF-α 10 ng/mL, 1.25 μM fenretinide, not significantly different from control, read-out: IL-8 level as % of control (TNF-α only)) worked out at 86%. Also, the “increase of IL-8 levels in the absence of TNF-α stimulation” value in series [3] (cystic fibrosis cells, no TNF-α, fenretinide 1.25-5 μM, dose-dependent) was 2- to 8 fold.
